pIC50: −log10 of the molar value. Read-outs that look alike come from different tables or passages of the source.
Key:
[1] = target: T1, recombinant full-length HSET (Homo sapiens, UniProt Q9BW19); test: ADP-Glo HSET assay (3 μM ATP), microtubule-stimulated ATPase; type: biochemical; conditions: for pIC50: preformed microtubules, 3 μM ATP, read-out: HSET ADP-Glo IC50
T1 construct: 5 nM full-length human N-terminal His-tag HSET; His-tag (N)
T1 sequence (Q9BW19 1-673): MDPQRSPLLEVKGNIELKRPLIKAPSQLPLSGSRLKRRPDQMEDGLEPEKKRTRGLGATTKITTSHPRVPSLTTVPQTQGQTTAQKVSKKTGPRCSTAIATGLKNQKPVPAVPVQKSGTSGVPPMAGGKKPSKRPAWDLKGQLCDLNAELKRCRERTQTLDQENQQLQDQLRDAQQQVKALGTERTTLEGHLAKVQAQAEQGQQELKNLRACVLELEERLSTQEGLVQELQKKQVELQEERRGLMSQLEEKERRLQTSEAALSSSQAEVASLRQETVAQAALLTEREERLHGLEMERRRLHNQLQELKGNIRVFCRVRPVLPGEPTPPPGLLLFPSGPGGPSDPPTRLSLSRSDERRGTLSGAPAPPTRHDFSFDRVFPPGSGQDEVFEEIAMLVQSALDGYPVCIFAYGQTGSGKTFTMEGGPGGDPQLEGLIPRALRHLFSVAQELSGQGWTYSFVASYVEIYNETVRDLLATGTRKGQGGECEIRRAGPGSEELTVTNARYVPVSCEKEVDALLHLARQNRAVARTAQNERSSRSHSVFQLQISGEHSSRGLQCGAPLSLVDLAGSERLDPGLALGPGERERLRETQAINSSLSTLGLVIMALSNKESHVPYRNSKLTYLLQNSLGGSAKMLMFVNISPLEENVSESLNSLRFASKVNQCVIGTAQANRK
Summary of the method: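 His-tagged full-length HSET (5 nM) or GST-Eg5 motor domain (4 nM), with 70 μg/mL paclitaxel-stabilised microtubules in HEPES pH 6.8 buffer, was preincubated with compound for 10 min. ATP was then added (3 or 500 μM for HSET, 4.8 μM for Eg5), followed by 80 min at 25 °C and ADP-Glo luminescence. IC50 was fitted with a four-parameter logistic.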

[2] = test system: centrosome-amplified (4NCA) DLD1 cells; test: Multipolar spindle assay (4NCA cell line); type: cell-based, human
Source text: (§1) The cellular models consisted of chromosomally stable human colon cancer DLD1 diploid (2N) and tetraploid (4N) cells, along with tetraploid centrosome -amplified (4NCA) DLD1 cells and DLD1 HSET knockout (KO) cells. DLD1 2N and 4N cells were generated and characterized as previously described.[27],[41],[42] In order to generate 4NCA cells, we used dihydro-cytochalasin B (DCB) to transiently block cytokinesis and induce tetraploidisation and centrosome amplification in DLD1 cells. Centrosome amplification in 4NCA cells is transient and therefore they were generated from 2N cells for each run of the assay.[27] The DLD1 HSET KO cells were knockout clones generated by CRISPR and validated by sequencing to have a homozygous deletion in the KIFC1 gene.
(§2) Inhibition of HSET-mediated clustering was measured using a phenotypic assay measuring the formation of multipolar metaphase spindles in DLD1 cells with (4NCA) or without (4N) centrosome amplification. 4NCA cells were generated by treating 2N DLD1 cells with 2 μΜ DCB for 24 h, washed, and released in growth media for 24 h. 4N and 4NCA DLD1 cells were plated in 96-well ibidi μ-Clear plates (IB-89626, ibidi) with a no. 1.5 polymer coverslip bottom with optimal imaging properties. To enrich the mitotic population, cells were first treated for 3.5 h with 8 μM pro-TAME (I-440-01M, R&D system), an inhibitor of APC/C that transiently arrests cells in metaphase without affecting the structure of the spindle. Following the initial arrest, cells were treated with HSET compounds in the presence of 8 μM MG-132 (S2619, SelleckChem), a proteasome inhibitor that helps to maintain the metaphase arrest, where the number of spindle poles/cell can be optimally quantified by an automated segmentation analysis.
(§3) Cells were then fixed in methanol and stained for 3 h for mitotic pole marker aurora A (1:1000 610939 mouse anti-IAK1, BD Biosciences) and phosphorylated histone H3 (1:1500 ab47297 anti-histone H3 pS10, Abcam) as a marker of mitotic cells in 1.5% FBS in PBS. Following primary antibody treatment, cells were incubated with secondary antibodies Alexa Fluor 488 goat antimouse and Alexa Fluor 555 goat antirabbit (1:1500, A11029 and A21429, respectively, Life Technologies) together with 1 μg/mL DAPI (D9542, Sigma) in 1.5% FBS in PBS. Image acquisition was performed at 10× using the GE INCELL 2200 High Content Imaging System (Cytiva) and analyzed using the InCell Investigator software. Mitotic cells were identified by high pHH3 staining and were scored as multipolar if they had more than two mitotic spindle poles. The percentage of multipolar mitoses was calculated by dividing the number of multipolar mitoses by the total of all visible mitoses in one well of a 96-well plate (n > 100 for each replicate, two replicates per concentration point).

[3] = test system: non-centrosome amplified DLD1 (4N) cells; test: Multipolar spindle assay (4N cell line); type: cell-based, human; conditions: for % Multipolarity above baseline @ 15 mM (4N cells): supplementary CSV; for % multipolarity above baseline @ 15 μM (4N cells): 4N DLD1 cells (Table 4)
Source text: as §1, §2, §3

[4] = mean (±SD) n ≥ 3 (37 n = 2, 38 single determination) (Table 3)
[5] = 15 μM, 4NCA DLD1 cells (Table 4)
[6] = 15 µM, 4NCA cells, supplementary CSV

| pIC50 [1, 4] | pIC50 ([1]; mean (±SD) n ≥ 3 (Table 4)) | fold decrease in HSET activity ([1]; compared to its parent compound (35)) [fold] | LE ([1]; LE = −1.4Log(IC50 [M])/number of non-hydrogen atoms (Table 2)) | LLE ([1]; LLE = −Log(IC50 [M]) – cLogP (MoKa) (Table 2)) | pIC50 ([1]; mean (±SD) n ≥ 3, >200 from a single determination (Table 2)) | fold increase in HSET inhibition ([1]; propyl ester versus ethyl ester 13) | Compound | % multipolarity above baseline @ 15 μM (4NCA cells) [2, 5] [%] | % multipolarity above baseline @ 15 μM (4NCA cells) [2, 6] [%] | % Multipolarity above baseline @ 15 mM (4N cells) ([3]; 15 μM) [%] | % multipolarity above baseline @ 15 μM (4N cells) [3] [%] | increase in mitotic spindle multipolarity (4NCA) ([2]; 15 μM, centrosome-amplified (4NCA) DLD1 cell line) [%] | effect on multipolar mitoses (4N), in words ([3]; 15 μM, non-centrosome amplified DLD1 (4N) cell line) |
| --- | --- | --- | --- | --- | --- | --- | --- | --- | --- | --- | --- | --- | --- |
| 7.72 | 7.72 |  |  |  |  |  | CCCOC(=O)c1sc(NC(=O)C[C@H](CCCNC)NC(=O)c2cccc(-c3noc(C)n3)c2)nc1C [Compound 35, Propyl (S)-4-Methyl-2-(3-(3-(5-methyl-1,2,4-oxadiazol-3-yl)benzamido)-6-(methylamino)hexanamido)thiazole-5-carboxylate] | 11 | 11 | 1 | 1 |  |  |
| 7.96 | 7.96 |  |  |  |  |  | CCCOC(=O)c1sc(NC(=O)C[C@H](CCCN(C)C)NC(=O)c2cccc(-c3noc(C)n3)c2)nc1C [Compound 36, Propyl (S)-2-(6-(Dimethylamino)-3-(3-(5-methyl-1,2,4-oxadiazol-3-yl)benzamido)hexanamido)-4-methylthiazole-5-carboxylate] | 15 | 15 | 1 | 1 |  |  |
| 6.66 |  | 11 |  |  |  |  | CCCOC(=O)c1sc(NC(=O)C[C@H](CCCN(C)C(=O)O[C@@H]2CC/C=C/CCC2)NC(=O)c2cccc(-c3noc(C)n3)c2)nc1C [Compound 38, Propyl 2-((S)-6-(((((S,E)-Cyclooct-4-en-1-yl)oxy)carbonyl)(methyl)amino)-3-(3-(5-methyl-1,2,4-oxadiazol-3-yl)benzamido)hexanamido)-4-methylthiazole-5-carboxylate] |  |  |  |  |  |  |
|  | 7.92 |  | 0.35 | 4.8 | 7.92 | fivefold | CCCOC(=O)c1sc(NC(=O)CCNC(=O)c2cccc(-c3noc(C)n3)c2)nc1C [Compound 32, Propyl 4-Methyl-2-(3-(3-(5-methyl-1,2,4-oxadiazol-3-yl)benzamido)propanamido)thiazole-5-carboxylate] | 21 | 21 | 2 | 2 | 21 | minimal effect |

Reference: publication PMC9969401, “Discovery of 2-(3-Benzamidopropanamido)thiazole-5-carboxylate Inhibitors of the Kinesin HSET (KIFC1) and the Development of Cellular Target Engagement Probes” (Journal of Medicinal Chemistry, 2023)
